Results as given in patent US11364232B2, “Polymer of gamma-glutamyl transpeptidase catalyzing hydrolysis-induced charge reversal and its application in the field of drug delivery” (ZHEJIANG UNIVERSITY, priority 2017, dated 2022).

Target: γ-glutamyl transpeptidase (Homo sapiens, UniProt P19440)
Experiment: γ-glutamyl transpeptidase (GGT)-catalyzed hydrolysis of monomers followed by NMR
Type: biochemical
Details: monomer 25 μM in PBS pH 7.4 (D2O), GGT 1 U/mL, 37° C.
Experimental: Dissolve monomers GABEA or GAEA in PBS solution (pH=7.4, prepared by D2O) and configure the monomer concentration to 25 μM in the PBS solution. γ-glutamyl transpeptidase was added into the solution respectively so that the concentration of γ-glutamyl transpeptidase in the solution is 1 U/mL. At this time, the obtained product was immediately detected by nuclear magnetic resonance. The sample was placed in a 37° C. incubator and analyzed the nuclear magnetic resonance at different times.

Sequence of γ-glutamyl transpeptidase (P19440 whole entry): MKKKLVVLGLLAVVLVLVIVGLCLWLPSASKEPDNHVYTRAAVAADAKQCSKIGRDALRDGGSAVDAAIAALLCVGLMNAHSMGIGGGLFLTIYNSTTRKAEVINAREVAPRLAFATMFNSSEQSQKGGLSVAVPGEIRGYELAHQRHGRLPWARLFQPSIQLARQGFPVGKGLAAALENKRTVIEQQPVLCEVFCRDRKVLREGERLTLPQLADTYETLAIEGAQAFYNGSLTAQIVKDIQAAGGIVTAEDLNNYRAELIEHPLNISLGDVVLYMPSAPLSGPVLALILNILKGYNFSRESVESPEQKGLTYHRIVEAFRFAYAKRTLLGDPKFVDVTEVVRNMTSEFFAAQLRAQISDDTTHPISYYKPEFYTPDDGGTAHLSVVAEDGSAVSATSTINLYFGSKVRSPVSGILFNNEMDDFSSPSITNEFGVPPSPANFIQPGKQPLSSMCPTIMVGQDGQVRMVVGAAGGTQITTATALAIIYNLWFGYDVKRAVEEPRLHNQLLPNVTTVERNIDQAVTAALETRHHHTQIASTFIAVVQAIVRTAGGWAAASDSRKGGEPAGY

hydrolysis activity of γ-glutamyl transpeptidase	Structure (SMILES)
far greater than GAEA	C=CC(=O)NCCNC(=O)C(CC)NC(=O)CCC(N)C(=O)O (centres unmarked) [GABEA]
lower catalytic activity	C=CC(=O)NCCNC(=O)CCC(N)C(=O)O (centres unmarked) [GAEA]
